Laboratory results from patent publication USRE42890E1, “Furazanobenzimidazoles” (Basilea Pharmaceutica AG, priority 2003, dated 2011).

Columns and labels:
[1] = tested on: Jurkat; test: MTS proliferation assay, Jurkat; type: cell-based, human; conditions: 72 h incubation, read-out: MTS proliferation assay IC 50 Jurkat
Method in brief: (§1)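 Absorbance at 492 nm after 3 h with MTS reagent gave the proliferation read-out. Before that, cells in RPMI-1640 complete medium (5% or 10% FCS) were treated 72 h with compound at four final concentrations, 0.3 to 10 μM.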

[2] = tested on: Jily; test: MTS proliferation assay, Jily; type: cell-based; conditions: 72 h incubation, read-out: MTS proliferation assay IC 50 Jily
Method in brief: (§2)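 Read-out: MTS absorbance at 492 nm after 3 h reagent incubation. Before that, cells grew 72 h at 37° C/7.5% CO2 with test compounds at final concentrations of 10 μM, 3 μM, 1 μM and 0.3 μM, added 24 h post-seeding.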

[3] = tested on: HT1080; test: MTS proliferation assay, HT1080; type: cell-based, human; conditions: HT1080, 72 h incubation; read-out: MTS proliferation assay IC 50 HT1080
Method in brief: as §1

[4] = tested on: HeLa; test: MTS proliferation assay, HeLa; type: cell-based, human; conditions: 72 h incubation, read-out: MTS proliferation assay IC 50 HeLa
Method in brief: as §1

[5] = tested on: MRC5; test: MTS proliferation assay, MRC5; type: cell-based; conditions: MRC5, 72 h incubation; read-out: MTS proliferation assay IC 50 MRC5
Method in brief: as §2

[6] = tested on: adherent cells or suspension cells; test: Hoechst 33342 nuclear staining (fraction of apoptotic nuclei); type: cell-based; design: key: 0 relating to no activity; 1 relating to weak activity comprising less than 70% of the cells; score 2 relating to strong activity comprising more than 70% of the cells

Structure (SMILES): Nc1nonc1-c1nc2ccccc2n1COc1ccc(Br)cc1 [Example 89]
- IC50 [1]: 10 to 100 nM
- IC50 [2]: 10 to 100 nM
- IC50 [3]: 10 to 100 nM
- IC50 [4]: 10 to 100 nM
- IC50 [5]: 100 to 1000 nM
- Hoechst 33342 nuclear staining score ([6]; H460, conc 0.01 μm): 0
- Hoechst 33342 nuclear staining score ([6]; H460, conc 0.1 μm): 2 (score 2 relating to strong activity comprising more than 70% of the cells)
- Hoechst 33342 nuclear staining score ([6]; H460, conc 1 μm): 2 (score 2 relating to strong activity comprising more than 70% of the cells)
- Hoechst 33342 nuclear staining score ([6]; HeLa, conc 0.01 μm): 0
- Hoechst 33342 nuclear staining score ([6]; HeLa, conc 0.1 μm): 2 (score 2 relating to strong activity comprising more than 70% of the cells)
- Hoechst 33342 nuclear staining score ([6]; HeLa, conc 1 μm): 2 (score 2 relating to strong activity comprising more than 70% of the cells)
- Hoechst 33342 nuclear staining score ([6]; Jily, conc 0.01 μm): 0
- Hoechst 33342 nuclear staining score ([6]; Jily, conc 0.1 μm): 2 (score 2 relating to strong activity comprising more than 70% of the cells)
- Hoechst 33342 nuclear staining score ([6]; Jily, conc 1 μm): 2 (score 2 relating to strong activity comprising more than 70% of the cells)
- Hoechst 33342 nuclear staining score ([6]; Jurkat, conc 0.01 μm): 0
- Hoechst 33342 nuclear staining score ([6]; Jurkat, conc 0.1 μm): 2 (score 2 relating to strong activity comprising more than 70% of the cells)
- Hoechst 33342 nuclear staining score ([6]; Jurkat, conc 1 μm): 2 (score 2 relating to strong activity comprising more than 70% of the cells)
- Hoechst 33342 nuclear staining score ([6]; MRC5, conc 0.01 μm): 0
- Hoechst 33342 nuclear staining score ([6]; MRC5, conc 0.1 μm): 2 (score 2 relating to strong activity comprising more than 70% of the cells)
- Hoechst 33342 nuclear staining score ([6]; MRC5, conc 1 μm): 2 (score 2 relating to strong activity comprising more than 70% of the cells)
- Hoechst 33342 nuclear staining score ([6]; PBLs, conc 0.01 μm): 0
- Hoechst 33342 nuclear staining score ([6]; PBLs, conc 0.1 μm): 0
- Hoechst 33342 nuclear staining score ([6]; PBLs, conc 1 μm): 0

Structure (SMILES): Nc1nonc1-c1nc2ccccc2n1CC1CC1 [B, reference compound]
- IC50 [1]: > 1000 nM
- IC50 [2]: > 1000 nM
- IC50 [3]: > 1000 nM
- IC50 [4]: > 1000 nM
- IC50 [5]: > 1000 nM
- Hoechst 33342 nuclear staining score ([6]; H460, conc 3 μm): 0
- Hoechst 33342 nuclear staining score ([6]; H460, conc 10 μm): 0
- Hoechst 33342 nuclear staining score ([6]; H460, conc 30 μm): 0
- Hoechst 33342 nuclear staining score ([6]; HeLa, conc 3 μm): 0
- Hoechst 33342 nuclear staining score ([6]; HeLa, conc 10 μm): 0
- Hoechst 33342 nuclear staining score ([6]; HeLa, conc 30 μm): 0
- Hoechst 33342 nuclear staining score ([6]; Jily, conc 3 μm): 0
- Hoechst 33342 nuclear staining score ([6]; Jily, conc 10 μm): 0
- Hoechst 33342 nuclear staining score ([6]; Jily, conc 30 μm): 0
- Hoechst 33342 nuclear staining score ([6]; Jurkat, conc 3 μm): 0
- Hoechst 33342 nuclear staining score ([6]; Jurkat, conc 10 μm): 0
- Hoechst 33342 nuclear staining score ([6]; Jurkat, conc 30 μm): 0
- Hoechst 33342 nuclear staining score ([6]; MRC5, conc 3 μm): 0
- Hoechst 33342 nuclear staining score ([6]; MRC5, conc 10 μm): 0
- Hoechst 33342 nuclear staining score ([6]; MRC5, conc 30 μm): 0
- Hoechst 33342 nuclear staining score ([6]; PBLs, conc 3 μm): 0
- Hoechst 33342 nuclear staining score ([6]; PBLs, conc 10 μm): 0
- Hoechst 33342 nuclear staining score ([6]; PBLs, conc 30 μm): 0
